In ChEMBL document CHEMBL4420076, “Amylin and calcitonin receptor agonist” (2017):
pEC50, pIC50: −log10 of the molar value. Numbered stars: 1 amine (or outer) side, 2 acyl side, 3 side chain; on linkers, the order of the positions; unused ones are H or OH. Peptide text beside a SMILES is read from it. * marks the point of attachment. C20 diacid = O=C(O)CCCCCCCCCCCCCCCCCCC(=O)*; γGlu = O=C(O)[C@H](CCC(=O)[*:2])N[*:1]

Columns and labels:
[1] = Solubility in 100 mM bistrispropane buffer at pH 7.0 incubated for 18 hrs by UPLC analysis; format: physicochemical
[2] = target: T1, Amylin receptor AMY3; CALCR/RAMP3 (Homo sapiens, UniProt O60896+P30988); test: Displacement of [125I]-labeled rat amylin from human amylin receptor expressed in BHK tkts13 whole cells co-expressing RAMP3 incubated for 60 mins by scintillation proximity assay; format: cell-based
T1 sequence (P30988 whole entry): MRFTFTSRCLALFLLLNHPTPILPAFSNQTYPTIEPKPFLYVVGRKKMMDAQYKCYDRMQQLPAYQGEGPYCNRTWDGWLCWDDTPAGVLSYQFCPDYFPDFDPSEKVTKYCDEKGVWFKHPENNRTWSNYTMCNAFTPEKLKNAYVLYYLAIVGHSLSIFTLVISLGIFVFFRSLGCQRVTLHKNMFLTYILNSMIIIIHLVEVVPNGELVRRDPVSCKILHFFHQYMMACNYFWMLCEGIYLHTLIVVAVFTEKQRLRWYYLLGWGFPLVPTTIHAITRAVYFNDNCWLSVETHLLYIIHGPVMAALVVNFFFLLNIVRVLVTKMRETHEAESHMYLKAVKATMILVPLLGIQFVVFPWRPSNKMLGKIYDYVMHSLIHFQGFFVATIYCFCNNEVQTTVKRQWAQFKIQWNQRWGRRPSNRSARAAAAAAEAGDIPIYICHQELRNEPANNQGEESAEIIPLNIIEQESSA
T1 sequence (O60896 whole entry): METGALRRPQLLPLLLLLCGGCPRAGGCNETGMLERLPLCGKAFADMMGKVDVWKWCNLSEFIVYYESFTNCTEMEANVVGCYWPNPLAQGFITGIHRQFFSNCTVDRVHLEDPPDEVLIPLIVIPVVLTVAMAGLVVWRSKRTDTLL

[3] = Solubility in 100 mM glycylglycine buffer at pH 3.0 incubated for 18 hrs by UPLC analysis; format: physicochemical
[4] = Solubility in 100 mM bistrispropane buffer at pH 8.0 incubated for 18 hrs by UPLC analysis; format: physicochemical
[5] = target: T1, Amylin receptor AMY3; CALCR/RAMP3; test: Agonist activity at human amylin receptor expressed in BHK570 cells co-expressing RAMP3 assessed as increase in intracellular cAMP concentration incubated for 3 hrs in absence of albumin by CRE luciferase reporter gene assay; format: functional, cell-based
[6] = Stability in pH 7.5 buffer assessed as lag time for fibril formation at 1 uM by Thioflavin T based fluorescence assay; format: physicochemical; conditions: pH 7.5, 1 µM
Calcitonin receptor [7] = target: T2, Calcitonin receptor (Homo sapiens, UniProt P30988); test: Agonist activity at human calcitonin receptor expressed in BHK570 cells assessed as increase in intracellular cAMP concentration incubated for 3 hrs in presence of 10% FBS by CRE luciferase reporter gene assay; format: functional, cell-based
T2 sequence (P30988 whole entry): T1 sequence (P30988 whole entry)

[8] = Solubility in 100 mM bistrispropane buffer at pH 6.0 incubated for 18 hrs by UPLC analysis; format: physicochemical
Calcitonin receptor [9] = target: T2, Calcitonin receptor; test: Agonist activity at human calcitonin receptor expressed in BHK570 cells assessed as increase in intracellular cAMP concentration incubated for 3 hrs in absence of albumin by CRE luciferase reporter gene assay; format: functional, cell-based
[10] = Solubility in 100 mM bistrispropane buffer at pH 7.5 incubated for 18 hrs by UPLC analysis; format: physicochemical
[11] = Solubility in 100 mM bistrispropane buffer at pH 6.5 incubated for 18 hrs by UPLC analysis; format: physicochemical
[12] = Stability in pH 7.5 buffer assessed as compound recovery at 1 uM by Thioflavin T based fluorescence assay; format: physicochemical; conditions: read-out: Drug recovery
[13] = Solubility in 100 mM glycylglycine buffer at pH 4.0 incubated for 18 hrs by UPLC analysis; format: physicochemical
[14] = Solubility in 100 mM glycylglycine buffer at pH 5.0 incubated for 18 hrs by UPLC analysis; format: physicochemical

SMILES | solubility at 18 h [1] [µM] | pIC50 [2] | solubility at 18 h [3] [µM] | solubility at 18 h [4] [µM] | pEC50 [5] | Time [6] [h] | pEC50 (Calcitonin receptor [7]) | solubility at 18 h [8] [µM] | pEC50 (Calcitonin receptor [9]) | solubility at 18 h [10] [µM] | solubility at 18 h [11] [µM] | remaining at 1 µM [12] [%] | solubility at 18 h [13] [µM] | solubility at 18 h [14] [µM]
CC(C)C[C@H](NC(=O)[C@H](C)NC(=O)[C@H](C)NC(=O)[C@@H](NC(=O)[C@H](CO)NC(=O)[C@H](CC(C)C)NC(=O)[C@H](CCC(=O)O)NC(=O)[C@H](CO)NC(=O)[C@H](C)NC(=O)CC[C@H](NC(=O)CCCCCCCCCCCCCCCCCCC(=O)O)C(=O)O)[C@@H](C)O)C(=O)NCC(=O)N[C@@H](CCCNC(=N)N)C(=O)N[C@@H](CC(C)C)C(=O)N[C@@H](CO)C(=O)N[C@@H](C)C(=O)N[C@@H](CCC(=O)O)C(=O)N[C@@H](CC(C)C)C(=O)N[C@@H](Cc1cnc[nH]1)C(=O)N[C@@H](CCC(=O)O)C(=O)N[C@@H](CC(C)C)C(=O)N[C@@H](C)C(=O)N[C@H](C(=O)N[C@@H](CC(C)C)C(=O)N1CCC[C@H]1C(=O)N[C@@H](CCCNC(=N)N)C(=O)N[C@H](C(=O)N[C@@H](CCC(=O)O)C(=O)N[C@H](C(=O)NCC(=O)N[C@@H](CO)C(=O)NCC(=O)N[C@@H](CO)C(=O)N[C@@H](CO)C(N)=O)[C@@H](C)O)[C@@H](C)O)[C@@H](C)O ({C20 diacid-γGlu}-ASELSTAALGRLSAELHELATLPRTETGSGSS-NH2) | ≥ 200 | 8.39 | ≥ 200 | ≥ 200 | 10.20 | > 45 | 9.81 | ≥ 200 | 10.42 | ≥ 200 | ≥ 200 | 100 | ≥ 200 | ≥ 200
CC(C)C[C@H](NC(=O)[C@H](CO)NC(=O)CNC(=O)[C@H](CO)NC(=O)CNC(=O)[C@@H](NC(=O)[C@H](CCC(=O)O)NC(=O)[C@@H](NC(=O)[C@H](CCCNC(=N)N)NC(=O)[C@@H]1CCCN1C(=O)[C@H](CC(C)C)NC(=O)[C@@H](NC(=O)[C@H](C)NC(=O)[C@H](CC(C)C)NC(=O)[C@H](CCC(=O)O)NC(=O)[C@H](Cc1cnc[nH]1)NC(=O)[C@H](CC(C)C)NC(=O)[C@H](CCC(=O)O)NC(=O)[C@H](C)NC(=O)[C@H](CO)NC(=O)[C@H](CC(C)C)NC(=O)[C@H](CCCNC(=N)N)NC(=O)CNC(=O)[C@H](CC(C)C)NC(=O)[C@H](C)NC(=O)[C@H](C)NC(=O)[C@@H](NC(=O)[C@H](CO)NC(=O)[C@H](CC(C)C)NC(=O)[C@H](CCC(=O)O)NC(=O)[C@H](CO)NC(=O)[C@H](C)NC(=O)CC[C@H](NC(=O)CCCCCCCCCCCCCCCCCCC(=O)O)C(=O)O)[C@@H](C)O)[C@@H](C)O)[C@@H](C)O)[C@@H](C)O)C(N)=O ({C20 diacid-γGlu}-ASELSTAALGRLSAELHELATLPRTETGSGSL-NH2) | ≥ 200 | 8.52 | ≥ 200 | ≥ 200 | – | > 45 | – | ≥ 200 | 10.51 | ≥ 200 | ≥ 200 | 100 | ≥ 200 | ≥ 200
